Structures are written as SMILES.

`Cc1cc(-c2cc(C(F)(F)F)n3ncc(-c4nc(-c5ccc(S(N)(=O)=O)cc5)no4)c3n2)ccc1C(F)(F)F` [Example 18, 4-{5-[5-(3-Methyl-4-trifluoromethyl-phenyl)-7-trifluoromethyl-pyrazolo[1,5-a]pyrimidin-3-yl]-[1,2,4]oxadiazol-3-yl}-benzenesulfonamide] yielded a melting point of 273 °C.

As to `NS(=O)(=O)c1cccc(-c2noc(-c3cnn4c(C(F)F)cc(-c5ccc(C(F)(F)F)cc5)nc34)n2)c1` [Example 5, 3-{5-[7-Difluoromethyl-5-(4-trifluoromethyl-phenyl)-pyrazolo[1,5-a]pyrimidin-3-yl]-[1,2,4]oxadiazol-3-yl}-benzenesulfonamide], the melting point is 267 °C.

As for `NS(=O)(=O)c1cccc(-c2noc(-c3cnn4c(C(F)(F)F)cc(-c5ccc(C(F)(F)F)c(OCC(F)(F)F)c5)nc34)n2)c1` [Example 16, 3-(5-{5-[3-(2,2,2-Trifluoro-ethoxy)-4-trifluoromethyl-phenyl]-7-trifluoromethyl-pyrazolo[1,5-a]pyrimidin-3-yl}-[1,2,4]oxadiazol-3-yl)-benzenesulfonamide], the melting point was 250 °C.

In turn, `Nc1ccc(-c2noc(-c3cnn4c(C(F)F)cc(-c5ccc(C(F)(F)F)cc5)nc34)n2)cn1` [Example 36, 5-{5-[7-Difluoromethyl-5-(4-trifluoromethyl-phenyl)-pyrazolo[1,5-a]pyrimidin-3-yl]-[1,2,4]oxadiazol-3-yl}-pyridin-2-ylamine] showed a melting point of 242 °C.

With `Nc1ncc(-c2noc(-c3cnn4c(C(F)(F)F)cc(-c5ccc(C(F)(F)F)c(F)c5)nc34)n2)cn1` [Example 79, 5-{5-[5-(3-Fluoro-4-trifluoromethyl-phenyl)-7-trifluoromethyl-pyrazolo[1,5-a]pyrimidin-3-yl]-[1,2,4]oxadiazol-3-yl}-pyrimidin-2-ylamine], the melting point is 270 °C.

The compound `NS(=O)(=O)c1ccc(-c2noc(-c3cnc4ccc(-c5ccc(C(F)(F)F)cc5)cn34)n2)cc1` [Example 50, 4-{5-[6-(4-Trifluoromethyl-phenyl)-imidazo[1,2-a]pyridin-3-yl]-[1,2,4]oxadiazol-3-yl}-benzenesulfonamide] displayed a melting point of 288 °C.

In the case of `Nc1ncc(-c2noc(-c3cnn4c(C(F)(F)F)cc(-c5ccc(Cl)cc5)nc34)n2)cn1` [Example 82, 5-{5-[5-(4-Chloro-phenyl)-7-trifluoromethyl-pyrazolo[1,5-a]pyrimidin-3-yl]-[1,2,4]oxadiazol-3-yl}-pyrimidin-2-ylamine], the melting point was 268 °C.

Compound `NS(=O)(=O)c1ccc(-c2noc(-c3cnc4ccc(-c5ccc(Cl)cc5)cn34)n2)s1` [Example 55, 5-{5-[6-(4-Chloro-phenyl)-imidazo[1,2-a]pyridin-3-yl]-[1,2,4]oxadiazol-3-yl}-thiophene-2-sulfonic acid amide] displayed a melting point of 263 °C.

The compound `Nc1cc(-c2noc(-c3cnn4ccc(-c5ccc(C(F)(F)F)cc5)nc34)n2)ccn1` [Example 59, 4-{5-[5-(4-Trifluoromethyl-phenyl)-pyrazolo[1,5-a]pyrimidin-3-yl]-[1,2,4]oxadiazol-3-yl}-pyridin-2-ylamine] registered a melting point of 250 °C.

In the case of `NS(=O)(=O)c1ccc(-c2noc(-c3cnc4ccc(-c5ccc(C(F)(F)F)cc5)cn34)n2)s1` [Example 54, 5-{5-[6-(4-Trifluoromethyl-phenyl)-imidazo[1,2-a]pyridin-3-yl]-[1,2,4]oxadiazol-3-yl}-thiophene-2-sulfonic acid amide], the melting point came out at 280 °C.

In turn, `Cc1cc(-c2ccc(Cl)cc2)cn2c(-c3nc(-c4ccc(S(N)(=O)=O)cc4)no3)cnc12` [Example 39, 4-{5-[6-(4-Chloro-phenyl)-8-methyl-imidazo[1,2-a]pyridin-3-yl]-[1,2,4]oxadiazol-3-yl}-benzenesulfonamide] returned a melting point of 311 °C.

As for `Nc1ccc(-c2noc(-c3cnn4c(C(F)F)cc(-c5ccc(C(F)(F)F)c(Cl)c5)nc34)n2)cn1` [Example 72, 5-{5-[5-(3-Chloro-4-trifluoromethyl-phenyl)-7-difluoromethyl-pyrazolo[1,5-a]pyrimidin-3-yl]-[1,2,4]oxadiazol-3-yl}-pyridin-2-ylamine], the melting point was determined as 252 °C.

For `NS(=O)(=O)c1cccc(-c2noc(-c3cnn4c(C(F)(F)F)cc(-c5ccc(Cl)cc5)nc34)n2)c1` [Example 10, 3-{5-[5-(4-Chloro-phenyl)-7-trifluoromethyl-pyrazolo[1,5-a]pyrimidin-3-yl]-[1,2,4]oxadiazol-3-yl}-benzenesulfonamide], the melting point came out at 247 °C.

On to `NS(=O)(=O)c1cccc(-c2noc(-c3cnn4ccc(-c5ccc(Cl)cc5)nc34)n2)c1` [Example 49, 3-{5-[5-(4-Chloro-phenyl)-pyrazolo[1,5-a]pyrimidin-3-yl]-[1,2,4]oxadiazol-3-yl}-benzenesulfonamide], for which the melting point was determined as 223 °C.

In the case of `Cc1cc(-c2ccc(Cl)cc2)cn2c(-c3nc(-c4cccc(S(N)(=O)=O)c4)no3)cnc12` [Example 40, 3-{5-[6-(4-Chloro-phenyl)-8-methyl-imidazo[1,2-a]pyridin-3-yl]-[1,2,4]oxadiazol-3-yl}-benzenesulfonamide], the melting point amounted to 301 °C.

In turn, `Cc1cc(-c2cc(C(F)(F)F)n3ncc(-c4nc(-c5ccc(N)nc5)no4)c3n2)ccc1C(F)(F)F` [Example 37, 5-{5-[5-(3-Methyl-4-trifluoromethyl-phenyl)-7-trifluoromethyl-pyrazolo[1,5-a]pyrimidin-3-yl]-[1,2,4]oxadiazol-3-yl}-pyridin-2-ylamine] returned a melting point of 220 °C.

Compound `Nc1cc(-c2noc(-c3cnn4c(C(F)(F)F)cc(-c5ccc(Cl)c(Cl)c5)nc34)n2)ccn1` [Example 86, 4-{5-[5-(3,4-Dichloro-phenyl)-7-trifluoromethyl-pyrazolo[1,5-a]pyrimidin-3-yl]-[1,2,4]oxadiazol-3-yl}-pyridin-2-ylamine] had a melting point of 262 °C.

In turn, `Cc1cc(-c2cc(C(F)(F)F)n3ncc(-c4nc(-c5ccnc(N)c5)no4)c3n2)ccc1C(F)(F)F` [Example 87, 4-{5-[5-(3-Methyl-4-trifluoromethyl-phenyl)-7-trifluoromethyl-pyrazolo[1,5-a]pyrimidin-3-yl]-[1,2,4]oxadiazol-3-yl}-pyridine-2-ylamine] came in with a melting point of 245 °C.

Compound `Nc1cc(-c2noc(-c3cnn4c(C(F)(F)F)cc(-c5ccc(Cl)cc5)nc34)n2)ccn1` [Example 85, 4-{5-[5-(4-Chloro-phenyl)-7-trifluoromethyl-pyrazolo[1,5-a]pyrimidin-3-yl]-[1,2,4]oxadiazol-3-yl}-pyridin-2-ylamine] had a melting point of 252 °C.

Take `Cc1cc(-c2cc(C(F)F)n3ncc(-c4nc(-c5ccc(N)nc5)no4)c3n2)ccc1C(F)(F)F` [Example 65, 5-{5-[7-Difluoromethyl-5-(3-methyl-4-trifluoromethyl-phenyl)-pyrazolo[1,5-a]pyrimidin-3-yl]-[1,2,4]oxadiazol-3-yl}-pyridin-2-ylamine]: the melting point is 231 °C.

In turn, `NS(=O)(=O)c1ccc(-c2noc(-c3cnn4c(C(F)F)cc(-c5ccc(Cl)cc5)nc34)n2)s1` [Example 29, 5-{5-[5-(4-Chloro-phenyl)-7-difluoromethyl-pyrazolo[1,5-a]pyrimidin-3-yl]-[1,2,4]oxadiazol-3-yl}-thiophene-2-sulfonic acid amide] registered a melting point of 259 °C.

`NS(=O)(=O)c1ccc(-c2noc(-c3cnn4c(C(F)(F)F)cc(-c5cccc(C(F)(F)F)c5)nc34)n2)cc1` [Example 25, 4-{5-[7-Trifluoromethyl-5-(3-trifluoromethyl-phenyl)-pyrazolo[1,5-a]pyrimidin-3-yl]-[1,2,4]oxadiazol-3-yl}-benzenesulfonamide] showed a melting point of 300 °C.

Take `NS(=O)(=O)c1ccc(-c2noc(-c3cnn4ccc(-c5ccc(C(F)(F)F)cc5)nc34)n2)s1` [Example 52, 5-{5-[5-(4-Trifluoromethyl-phenyl)-pyrazolo[1,5-a]pyrimidin-3-yl]-[1,2,4]oxadiazol-3-yl}-thiophene-2-sulfonic acid amide]: the melting point was found to be 251 °C.

As for `Nc1ccc(-c2noc(-c3cnn4c(C(F)(F)F)cc(-c5ccc(C(F)(F)F)c(F)c5)nc34)n2)cn1` [Example 75, 5-{5-[5-(3-Fluoro-4-trifluoromethyl-phenyl)-7-trifluoromethyl-pyrazolo[1,5-a]pyrimidin-3-yl]-[1,2,4]oxadiazol-3-yl}-pyridin-2-ylamine], the melting point amounted to 233 °C.

For `Nc1ncc(-c2noc(-c3cnn4c(C(F)(F)F)cc(-c5ccc(Cl)c(Cl)c5)nc34)n2)cn1` [Example 81, 5-{5-[5-(3,4-Dichloro-phenyl)-7-trifluoromethyl-pyrazolo[1,5-a]pyrimidin-3-yl]-[1,2,4]oxadiazol-3-yl}-pyrimidin-2-ylamine], the melting point amounted to 300 °C.

`NS(=O)(=O)c1ccc(-c2noc(-c3cnn4c(C(F)(F)F)cc(-c5ccc(Cl)cc5)nc34)n2)s1` [Example 28, 5-{5-[5-(4-Chloro-phenyl)-7-trifluoromethyl-pyrazolo[1,5-a]pyrimidin-3-yl]-[1,2,4]oxadiazol-3-yl}-thiophene-2-sulfonic acid amide] yielded a melting point of 294 °C.

The compound `NS(=O)(=O)c1cccc(-c2noc(-c3cnn4c(C(F)(F)F)cc(-c5cccc(C(F)(F)F)c5)nc34)n2)c1` [Example 26, 3-{5-[7-Trifluoromethyl-5-(3-trifluoromethyl-phenyl)-pyrazolo[1,5-a]pyrimidin-3-yl]-[1,2,4]oxadiazol-3-yl}-benzenesulfonamide] came in with a melting point of 251 °C.

The compound `Cc1cc(-c2ccc(C(F)(F)F)cc2)cn2c(-c3nc(-c4ccnc(N)c4)no3)cnc12` [Example 60, 4-{5-[8-Methyl-6-(4-trifluoromethyl-phenyl)-imidazo[1,2-a]pyridin-3-yl]-[1,2,4]oxadiazol-3-yl}-pyridin-2-ylamine] yielded a melting point of 264 °C.

In turn, `Nc1ccc(-c2noc(-c3cnn4c(C(F)F)cc(-c5ccc(Cl)c(Cl)c5)nc34)n2)cn1` [Example 66, 5-{5-[5-(3,4-Dichloro-phenyl)-7-difluoromethyl-pyrazolo[1,5-a]pyrimidin-3-yl]-[1,2,4]oxadiazol-3-yl}-pyridin-2-ylamine] registered a melting point of 279 °C.

One may read the melting point as the temperature, or range, at which the solid turns liquid.

The record behind these values is patent US8349844B2, “Substituted pyrazolo [1,5-A] pyrimidines as metabotropic glutamate antagonists” (Hoffmann-La Roche Inc., priority 2005, dated 2013).
